Drawing on the supplement of paper PMC11061612, this text covers Bliss excess for six compounds.

Experiment in all cases: Bliss excess, mean over the matrix (fraction); higher = more synergy
One assay relates to GAK (Melanoma). In outline:
(§1)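 Cell lines grown in DMEM/F12 or RPMI with 10% FBS were plated in 1536-well plates and held 24 hours at 37°C, 5% CO2 before 72 hours of exposure to two-drug dose matrices, with DMSO typically at 0.2%. CellTiter-Glo 2.0 luminescence gave viability, which was converted to inhibition. Vehicle wells were set to 0 and blank wells to 1. Combination Emax is the second-highest inhibition in the matrix, and Bliss excess is the observed combination effect minus the expected EA + EB − EA·EB, where EA and EB are the single-agent effects.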

Assay [1] relates to HT-1080 (Other Solid Carcinomas). In a few lines: as §1
The next assay deals with WM35 (Melanoma). In outline: as §1
Assay [2] has as its system ZR-75-30 (Breast Carcinoma). In outline: as §1
In assay [3] the test system is NCI-H596 (Other Solid Carcinomas). In a few lines: as §1
The test system of assay [4] is NAMALWA (Burkitt's Lymphoma). In outline:
as §1

Another assay has as its system NB1 (Neuroblastoma). In outline: as §1
Assay [5] deals with DBTRG-05MG (Glioblastoma). In a few lines: as §1
For assay [6], the system named is COR-L88 (Small Cell Lung Carcinoma). In outline: as §1
In assay [7] the test system is LCLC-103H (Non-Small Cell Lung Carcinoma). In outline:
as §1

The test system of assay [8] is SNU-407 (Colorectal Carcinoma). In a few lines: as §1
Assay [9] has as its system P32-ISH (Burkitt's Lymphoma). In a few lines:
as §1

For a further assay, the system named is T47D (Breast Carcinoma). In a few lines: as §1
The subject of assay [10] is SCC-4 (Oral Cavity Carcinoma). In a few lines:
as §1

In a further assay the test system is IST-MEL1 (Melanoma). In outline:
as §1

Assay [11] relates to BxPC-3 (Pancreatic Carcinoma). In outline: as §1
Assay [12] has as its system PL4 (Pancreatic Carcinoma). In a few lines:
as §1

A further assay concerns NCI-H2373 (Mesothelioma). In outline: as §1
Another assay concerns NCI-H226 (Mesothelioma). In outline:
as §1

The subject of assay [13] is MONO-MAC-6 (Acute Myeloid Leukemia). In a few lines: as §1

`CC1(C)CCC(CN2CCN(c3ccc(C(=O)NS(=O)(=O)c4ccc(NCC5CCOCC5)c([N+](=O)[O-])c4)c(Oc4cnc5[nH]ccc5c4)c3)CC2)=C(c2ccc(Cl)cc2)C1` [Venetoclax] + C[C@@H](Nc1cc(F)cc(F)c1)c1cc(C(=O)N(C)C)cc2c(=O)cc(N3CCOCC3)oc12 [AZD8186] (first compound max 1 µM, 7x7, partner max 3 µM): the Bliss excess with GAK (Melanoma) is -0.0325; in [1] it was -0.0311; in the assay with WM35 (Melanoma), -0.0332; in assay [2], -0.0201; in assay [3], -0.0378; in assay [4] it was 0.0287. Further, the Bliss excess with NB1 (Neuroblastoma) is -0.047; in assay [5], -0.0251; in [6], 0.0393; in [7], -0.0504; in [8], -0.0471; in assay [9], 0.0385. Further, the Bliss excess with T47D (Breast Carcinoma) is -0.0159; in assay [10], -0.119; with IST-MEL1 (Melanoma), 0.0253; in assay [11], -0.0115; in [12], -0.049; with NCI-H2373 (Mesothelioma), -0.0473. The Bliss excess in the assay on NCI-H226 (Mesothelioma) is -0.0577; in [13], 0.0531.
Consider `CC1(C)CCC(CN2CCN(c3ccc(C(=O)NS(=O)(=O)c4ccc(NCC5CCOCC5)c([N+](=O)[O-])c4)c(Oc4cnc5[nH]ccc5c4)c3)CC2)=C(c2ccc(Cl)cc2)C1` [Venetoclax] + CCN(CCO)CCCOc1ccc2c(Nc3cc(CC(=O)Nc4cccc(F)c4)[nH]n3)ncnc2c1 [AZD2811] (first compound max 1 µM, 7x7, partner max 1 µM), for which the Bliss excess in the assay on GAK (Melanoma) is -0.0537; in [1], -0.0407; in the assay with WM35 (Melanoma), -0.0397; in assay [2], -0.0575; in assay [3], -0.0394; in assay [4], 0.0894. The Bliss excess with NB1 (Neuroblastoma) was -0.0139; in assay [5] it was -0.0171; in assay [6] it was 0.053; in assay [7] it was -0.0756; in [8], -0.036; in assay [9] it was -0.0282. Also, the Bliss excess in the assay with T47D (Breast Carcinoma) is 0.0229; in assay [10], -0.0404; in the assay on IST-MEL1 (Melanoma) it was 0.0278; in assay [11] it was 0.0003; in assay [12], -0.0704; in the assay with NCI-H2373 (Mesothelioma), -0.0047. Also, the Bliss excess in the assay with NCI-H226 (Mesothelioma) was -0.0604; in assay [13], 0.101.
In the case of `CN(CCO)CC[C@H](CSc1ccccc1)Nc1ccc(S(=O)(=O)NC(=O)c2ccc(N3CCC([C@@H](O)c4ccccc4-c4ccc(Cl)cc4)CC3)cc2)cc1S(=O)(=O)C(F)(F)F` [AZD4320] + C[C@@H]1COCCN1C2=NC(=NC(=C2)C3(CC3)[S@](=N)(=O)C)C4=C5C=CNC5=NC=C4 [AZD6738] (first compound max 1 µM, 7x7, partner max 10 µM), the Bliss excess in the assay with GAK (Melanoma) was 0.0029; in [1], 0.0171; with WM35 (Melanoma) it was -0.0182; in assay [2] it was -0.0601; in assay [3], -0.047; in assay [4] it was 0.0006. Also, the Bliss excess with NB1 (Neuroblastoma) was -0.0023; in assay [5], -0.0221; in [6] it was 0.0079; in [7] it was -0.0362; in assay [8], -0.0568; in assay [9], -0.0092. Besides, the Bliss excess with T47D (Breast Carcinoma) was -0.0566; in [10], -0.0961; with IST-MEL1 (Melanoma) it was -0.0336; in [11], 0.0373; in assay [12] it was -0.066; in the assay with NCI-H2373 (Mesothelioma) it was -0.0303. Further, the Bliss excess in the assay on NCI-H226 (Mesothelioma) was -0.0819; in assay [13], 0.0003.
For `COc1nnc2ccc(N3CCC(c4ccc(OCCN5CCN(C)C(=O)[C@H]5C)cc4)CC3)nn12` [AZD5153] + Cc1c2c(nn1C)CSCc1cc(n(C)n1)CSc1cc(c3ccccc3c1)OCCCc1c(C(=O)O)n(C)c3c-2c(Cl)ccc13 [AZD5991] (first compound max 1 µM, 7x7, partner max 1 µM), the Bliss excess was -0.0183 with GAK (Melanoma); -0.0668 in [1]; 0.0634 in the assay with WM35 (Melanoma); 0.0034 in assay [2]; -0.0532 in assay [3]; -0.0536 in assay [4]. The Bliss excess is -0.0211 in the assay on NB1 (Neuroblastoma); -0.0296 in assay [5]; 0.0848 in assay [6]; 0.0179 in [7]; -0.0996 in assay [8]; -0.0108 in [9]. Moreover, the Bliss excess is 0.0003 in the assay on T47D (Breast Carcinoma); -0.0208 in assay [10]; -0.0116 with IST-MEL1 (Melanoma); -0.015 in [11]; -0.0242 in assay [12]; -0.0104 in the assay with NCI-H2373 (Mesothelioma). Further, the values for the Bliss excess (in the assay on NCI-H226 (Mesothelioma); in assay [13]) were -0.0209 and 0.0451, respectively.
On to `CC1(C)CCC(CN2CCN(c3ccc(C(=O)NS(=O)(=O)c4ccc(NCC5CCOCC5)c([N+](=O)[O-])c4)c(Oc4cnc5[nH]ccc5c4)c3)CC2)=C(c2ccc(Cl)cc2)C1` [Venetoclax] + COc1cc(Nc2ncc3c(n2)-c2ccc(Cl)cc2C(c2c(F)cccc2OC)=NC3)ccc1C(=O)O [Alisertib] (first compound max 1 µM, 7x7, partner max 10 µM), for which the Bliss excess was -0.0359 in the assay with GAK (Melanoma); 0.0087 in [1]; -0.0338 in the assay on WM35 (Melanoma); -0.0603 in [2]; -0.0501 in assay [3]; -0.0072 in assay [4]. Also, the Bliss excess in the assay with NB1 (Neuroblastoma) was 0.117; in assay [5], -0.0248; in assay [6], 0.11; in assay [7], -0.0132; in [8], -0.0296; in assay [9], -0.0078. For the same compound, the Bliss excess in the assay on T47D (Breast Carcinoma) is -0.0093; in assay [10], 0.0421; in the assay on IST-MEL1 (Melanoma) it was -0.0547; in [11], -0.0291; in assay [12], -0.0531; in the assay with NCI-H2373 (Mesothelioma), -0.0293. Besides, the Bliss excess in the assay with NCI-H226 (Mesothelioma) is -0.089; in assay [13], 0.164.
Consider `C[C@@H](c1ccc2nccn2c1)n1nnc2ncc(-c3cnn(C)c3)nc21` [Savolitinib] + CC1(C)CCC(CN2CCN(c3ccc(C(=O)NS(=O)(=O)c4ccc(NCC5CCOCC5)c([N+](=O)[O-])c4)c(Oc4cnc5[nH]ccc5c4)c3)CC2)=C(c2ccc(Cl)cc2)C1 [Venetoclax] (first compound max 1 µM, 7x7, partner max 1 µM), for which the Bliss excess is -0.0762 in the assay with GAK (Melanoma); -0.0676 in assay [1]; -0.065 in the assay with WM35 (Melanoma); -0.0361 in [2]; -0.0369 in assay [3]; -0.0098 in assay [4]. The Bliss excess in the assay on NB1 (Neuroblastoma) was -0.0516; in [5], -0.0572; in assay [6], -0.021; in assay [7] it was -0.0518; in [8], -0.0299; in [9] it was -0.0188. The Bliss excess is -0.0753 with T47D (Breast Carcinoma); -0.0649 in assay [10]; -0.0306 in the assay on IST-MEL1 (Melanoma); -0.0371 in assay [11]; -0.105 in assay [12]; -0.0512 in the assay with NCI-H2373 (Mesothelioma). Further, the Bliss excess in the assay on NCI-H226 (Mesothelioma) is -0.0342; in assay [13], 0.0005.
